Reference: patent US20090061461A1, “Phosphorylated or Non-Phosphorylated MPR as Diagnostic Marker or Therapeutic Target” (priority 2005, published 2009)

Key:
[1] = tested on: MCF-7 breast cancer cells; test: Stable transfection of MCF-7 cells, colony formation / cell count after 2 weeks of selection; type: cell-based, human; details: MCF-7 cells transfected with pcDNA3.1 HA-tagged mPR plasmid, 2 weeks hygromycin B selection
Description: Colonies were grown from all transfected cell lines. […] This anti-proliferative effect of both of these mutants was not observed using transiently transfected cells used for immunohistochemistry in cytospins because these were assayed shortly after transfection.
Therefore, treatments that would promote the formation of the hypophosphorylated dimeric form in tumors would be highly desirable. […] Therefore the interaction of an SH3-domain-containing protein that interacts with the SH3-domain target sequence that contains serine 56 is necessary to manifest the antiproliferative phenotype associated with non-phosphorylated serine 180. The interaction of this unknown protein is inhibited by phosphorylation of serine 56, thereby preventing the antiproliferative phenotype and enhancing proliferative ability. Conversely, when an SH2-domain-containing protein can bind to the phosphorylated tyrosine 179 adjacent to non-phosphorylated serine 180 then the antiproliferative effect is antagonized, and cells can proliferate. […]
MCF-7 cells stably transfected with mPR and mutants, respectively, were established. […] To that aim colonies were trypsinized, counted and diluted in two-fold dilutions.

DCC = target: T1, DCC (Homo sapiens, UniProt P43146); test: Immune precipitation of DCC with HA-tagged mPR, Western blot with anti-DCC AF5; type: binding; details: MCF7 cells, 24 hours after transfection, anti-HA immunoprecipitation
T1 construct: endogenous in cells; host or cells: MCF7 human breast cancer cells, transfected only with mPR-3HA expression plasmids
Description: Therefore it is most reasonable to assume that mPR will be detectable in a complex with DCC. […] Aliquots of 2×10^6 MCF7 cells were transfected as described below with each of the mPR expression vectors.
After 24 hours the mPR-3HA proteins were affinity purified with an anti-HA anti-body described above. The AF5 anti DCC human monoclonal antibody (Merck Biosciences OP45 Anti-DCC Mouse mAb AF5) was used to detect the presence of DCC by Western Blot. Normalized amounts of the precleared incubation reaction, the final supernatant after removal of the immuno-precipitate, and of the immuno-precipitated pellet were loaded to SDS-PAGE gels, blotted to membranes, and Western Blotted with the AF5 anti-DCC antibody. […] The size of the band was slightly higher than the predicted 158 kDa for DCC, possibly due to post-translational modification of the protein. An approximately 100 kDa band also reacted with the anti-DCC monoclonal antibody in Western Blot, which may represent a proteolytic fragment of DCC. […] We are not naively claiming a phosphorylated form of mPR interacts with DCC, which is not shown by our data. […]
MCF-7 breast cancer cells were transfected by Lipofection with 5 μg of pcDNA3.1 containing HA-tagged mPR-wt, tagged mutant S56A, S180A, S56A/S180A, or tagged mutant S56A/C128S/[…]. […] For IP the cells were trypsinized, counted and cell pellets were snap frozen and stored at −80° C. […]

[2] = tested on: breast cancer exhibiting a positive ER status; details: patients with breast cancer of positive ER status; cited from earlier work

T1 sequence (P43146 26-1447): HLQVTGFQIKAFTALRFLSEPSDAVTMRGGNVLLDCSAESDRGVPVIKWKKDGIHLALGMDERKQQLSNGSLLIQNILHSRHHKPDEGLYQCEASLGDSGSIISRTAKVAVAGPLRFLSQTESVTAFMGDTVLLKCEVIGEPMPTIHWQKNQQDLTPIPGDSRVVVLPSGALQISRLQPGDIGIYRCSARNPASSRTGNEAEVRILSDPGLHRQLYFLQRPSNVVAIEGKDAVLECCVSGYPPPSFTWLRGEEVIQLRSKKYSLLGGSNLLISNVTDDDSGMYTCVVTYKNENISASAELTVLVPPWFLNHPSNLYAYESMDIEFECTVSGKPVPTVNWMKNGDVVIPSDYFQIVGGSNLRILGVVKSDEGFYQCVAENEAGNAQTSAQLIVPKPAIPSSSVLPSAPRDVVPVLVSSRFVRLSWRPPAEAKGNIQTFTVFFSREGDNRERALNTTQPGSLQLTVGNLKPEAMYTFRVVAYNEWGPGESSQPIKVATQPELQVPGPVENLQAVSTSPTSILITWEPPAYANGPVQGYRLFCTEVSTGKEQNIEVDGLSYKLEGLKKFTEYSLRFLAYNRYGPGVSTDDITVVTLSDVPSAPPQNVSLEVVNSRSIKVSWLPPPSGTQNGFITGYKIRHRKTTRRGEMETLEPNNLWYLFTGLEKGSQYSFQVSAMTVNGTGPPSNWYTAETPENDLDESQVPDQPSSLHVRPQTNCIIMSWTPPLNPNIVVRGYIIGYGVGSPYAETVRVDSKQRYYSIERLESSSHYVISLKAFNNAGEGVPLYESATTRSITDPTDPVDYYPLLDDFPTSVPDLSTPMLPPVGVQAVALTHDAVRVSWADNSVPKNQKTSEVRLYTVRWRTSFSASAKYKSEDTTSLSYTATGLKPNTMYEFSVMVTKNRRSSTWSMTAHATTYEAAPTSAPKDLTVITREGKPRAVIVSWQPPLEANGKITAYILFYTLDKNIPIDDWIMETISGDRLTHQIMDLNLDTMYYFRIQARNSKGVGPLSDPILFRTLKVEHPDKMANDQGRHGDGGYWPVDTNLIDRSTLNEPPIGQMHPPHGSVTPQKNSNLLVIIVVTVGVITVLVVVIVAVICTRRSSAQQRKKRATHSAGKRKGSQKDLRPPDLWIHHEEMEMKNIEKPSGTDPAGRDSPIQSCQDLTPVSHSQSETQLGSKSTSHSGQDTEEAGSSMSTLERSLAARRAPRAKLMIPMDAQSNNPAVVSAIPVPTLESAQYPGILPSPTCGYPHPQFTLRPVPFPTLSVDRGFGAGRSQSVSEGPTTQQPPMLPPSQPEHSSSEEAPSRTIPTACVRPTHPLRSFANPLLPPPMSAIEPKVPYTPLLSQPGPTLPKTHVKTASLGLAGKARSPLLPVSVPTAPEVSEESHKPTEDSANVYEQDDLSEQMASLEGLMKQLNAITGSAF

Molecule | number of colonies / ability to proliferate [1] | also measured
S56A/S180A: HA-tagged mPR (PGRMC1) with serine 56 and serine 180 mutated to alanine, expressed from plasmid pcDNA3.1 | drastically reduced to effectively background levels | 
S56A/C128S/S180A: HA-tagged mPR triple mutant: serine 56 and 180 to alanine, cysteine 128 to serine | able to proliferate | 
wild-type mPR: HA-tagged wild-type membrane associated progesterone receptor component 1 expressed from pcDNA3_MPR-3HA |  | DCC band in immune precipitation pellet (DCC): A high molecular weight DCC band was observed
CC/C(=C(\c1ccccc1)c1ccc(OCCN(C)C)cc1)c1ccccc1 [tamoxifen] |  | fraction of cases in which effective [2]: approximately 50%
